Values of other authors as cited in patent US20140271726A1, “COMPOSITIONS AND METHODS FOR […] SUSCEPTIBILITY TO ANTIVIRAL AGENTS” (WISCONSIN ALUMNI RESEARCH FOUNDATION, priority 2013, published 2014).

Tested on: HCV genotype 3
Settings: genotype 3 patient, short duration monotherapy

Question: Which clinical outcome does the source give for C/C=C/C[C@@H](C)[C@@H](O)[C@H]1C(=O)N[C@@H](CC)C(=O)N(C)[C@H](C)C(=O)N(CC)[C@@H](C(C)C)C(=O)N[C@@H](C(C)C)C(=O)N(C)[C@@H](CC(C)C)C(=O)N[C@@H](C)C(=O)N[C@H](C)C(=O)N(C)[C@@H](CC(C)C)C(=O)N(C)[C@@H](CC(C)C)C(=O)N(C)[C@@H](C(C)C)C(=O)N1C [alisprovir] here?
Answer: cured
